# In publication PMC6214618, “Multimodal Ligand Binding Studies of Human and Mouse G-Coupled Taste Receptors to Correlate Their Species-Specific Sweetness Tasting Properties” (Molecules : A Journal of Synthetic Chemistry and Natural …, 2018):
# Peptide text beside a SMILES is read from it.
# What was measured:
# human T1R2 ATD [1] = biological target: T1, human T1R2 ATD (Homo sapiens, UniProt Q8TE23); test: Circular dichroism (CD) spectroscopy of ligand binding, human T1R2 ATD; settings: for Kd: measured by CD, 25 °C, 4.5 μM ATD protein, nonlinear regression at fixed wavelength; for change in CD profile / ellipticity upon ligand addition: His-hT1R2 ATD, 209 and 219 nm
# T1 construct: or Ser25-Thr489 in the 8xHis-Tag; made in house
# T1 sequence (Q8TE23 25-489): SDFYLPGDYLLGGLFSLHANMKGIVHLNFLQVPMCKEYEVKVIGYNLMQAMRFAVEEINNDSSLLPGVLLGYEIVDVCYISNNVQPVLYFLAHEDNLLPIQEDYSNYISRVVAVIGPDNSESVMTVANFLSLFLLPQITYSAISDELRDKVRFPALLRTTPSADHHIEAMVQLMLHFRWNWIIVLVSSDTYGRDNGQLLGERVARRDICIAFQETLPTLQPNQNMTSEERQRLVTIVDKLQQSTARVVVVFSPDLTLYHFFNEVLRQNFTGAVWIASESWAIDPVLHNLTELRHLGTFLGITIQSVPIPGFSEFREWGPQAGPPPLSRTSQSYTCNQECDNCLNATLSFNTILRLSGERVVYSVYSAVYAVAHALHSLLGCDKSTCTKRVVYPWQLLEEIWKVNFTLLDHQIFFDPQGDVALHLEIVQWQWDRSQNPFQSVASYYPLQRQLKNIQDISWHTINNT
# Protocol: CD spectra were recorded at 25 °C on an Model 202SF circular dichroism spectrometer (Aviv, Lakewood, NY, USA) equipped with a Peltier temperature control. Samples were added to a 0.01 cm path length quartz cuvette with a concentration of the ATD (from human and mouse) of about 0.3 mg/mL (4.5 μM) in 10 mM Tris-HCl, 150 mM NaCl, 10% glycerol, pH 7.4. Data was collected every 1 nm with an averaging time of 5 s. The spectral bandwidth was 1 nm. Spectra were corrected for buffer and ligands contributions and converted to mean ellipticity in deg cm^2·dmol^−1. The content of α-helix was computed using the deconvolution program from Chen et al.. […] The KD was calculated by analyzing CD data at a fixed wavelength versus ligand concentration using a nonlinear regression method (see Table 1). MSG was used as a negative control.
# human T1R2 ATD [2] = biological target: T2, human T1R2 ATD (Homo sapiens, UniProt Q8TE23); test: Saturation transfer difference NMR (STD-NMR) binding assay; settings: neotame 3–10 mM at 27 °C; MSG at 7–37 °C
# T2 construct: The human constructs ranged from residues Asn24-Met494 for human (ATD-hT1R2) in the SUMO fusion; His (N); TEV cleavage site (N); made in house
# T2 sequence (Q8TE23 24-494): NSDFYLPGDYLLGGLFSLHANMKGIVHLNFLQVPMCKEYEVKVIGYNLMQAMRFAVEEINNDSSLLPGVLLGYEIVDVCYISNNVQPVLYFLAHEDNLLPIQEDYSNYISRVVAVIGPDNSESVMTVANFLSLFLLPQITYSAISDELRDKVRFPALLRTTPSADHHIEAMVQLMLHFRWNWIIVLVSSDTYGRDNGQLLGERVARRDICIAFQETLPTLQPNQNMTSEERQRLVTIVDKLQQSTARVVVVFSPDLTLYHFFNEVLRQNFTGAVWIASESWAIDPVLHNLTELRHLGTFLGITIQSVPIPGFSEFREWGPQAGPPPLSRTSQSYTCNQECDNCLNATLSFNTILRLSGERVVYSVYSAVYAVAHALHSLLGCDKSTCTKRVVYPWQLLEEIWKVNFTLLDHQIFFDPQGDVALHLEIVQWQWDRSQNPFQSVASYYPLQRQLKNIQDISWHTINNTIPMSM
# Protocol: The ligand binding activity of ATD-T1R2 for all ligands was confirmed with a NMR-STD binding assay as previously described. Aliquots of the pure labeled SUMO-T1R2 protein were incubated with desired titrating ligands at 0.5–20 fold molar excess and concentrated to a final concentration of ~0.05 mM in 10 mM phosphate buffer (pH 7.4) containing 150 mM NaCl, 2.7 mM KCl, 5 mM DTT, 5x protease inhibitor (Roche) and 0.05% NaN3. Monosodium glutamate (MSG, non-sweet molecule) was used as a negative control. NMR data were collected on a VNMRS spectrometer (Varian, Palo Alto, CA, USA) operating at 800 MHz and equipped with a cryogenic probe. STD-NMR data collection and analysis was carried out as previously described.
# human T1R2 ATD [3] = biological target: T1, human T1R2 ATD; test: Intrinsic fluorescence spectroscopy, human T1R2 ATD; type: binding; settings: excitation 280 nm; for change in intrinsic fluorescence intensity: human T1R2 ATD, ligand 0–64 μM
# Protocol: (§1) Samples were prepared in the same way as for the CD experiments. Experiments were performed at 25 °C on Carey Eclipse instrument (Agilent, Santa Clara, CA, USA). Spectra were subtracted from the buffer ± ligand backgrounds for presentation. The curves at 340 nm were the best fits of the data obtained by a regression method using Microsoft Excel software (Microsoft, Redmont, WA, USA).
# mouse T1R2 ATD [4] = biological target: T3, mouse T1R2 ATD (Mus musculus, UniProt Q925I4); test: Circular dichroism (CD) spectroscopy of ligand binding, mouse T1R2 ATD; settings: mouse His-T1R2 ATD, saturating concentrations (neotame up to 500 μM)
# T3 construct: The mouse 8xHis-Tev-ATD-mT1R2 construct ranged from residues Gly2-Pro466; made in house
# T3 sequence (Q925I4 2-465 limits assumed): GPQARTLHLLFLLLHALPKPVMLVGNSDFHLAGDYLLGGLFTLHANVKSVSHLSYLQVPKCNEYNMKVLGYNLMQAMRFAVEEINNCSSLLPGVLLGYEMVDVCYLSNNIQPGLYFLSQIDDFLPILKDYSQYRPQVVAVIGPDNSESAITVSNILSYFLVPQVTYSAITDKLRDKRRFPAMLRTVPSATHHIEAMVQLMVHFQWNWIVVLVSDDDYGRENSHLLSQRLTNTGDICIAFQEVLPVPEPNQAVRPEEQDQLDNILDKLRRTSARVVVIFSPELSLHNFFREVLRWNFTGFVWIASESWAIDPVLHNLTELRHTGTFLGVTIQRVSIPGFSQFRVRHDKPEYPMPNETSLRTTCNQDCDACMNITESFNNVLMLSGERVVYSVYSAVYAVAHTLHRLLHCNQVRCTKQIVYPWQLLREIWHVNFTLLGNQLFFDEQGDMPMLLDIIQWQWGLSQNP
# Protocol: Data was collected every 1 nm with an averaging time of 5 s. The spectral bandwidth was 1 nm. Spectra were corrected for buffer and ligands contributions and converted to mean ellipticity in deg cm^2·dmol^−1. The content of α-helix was computed using the deconvolution program from Chen et al.. […] The KD was calculated by analyzing CD data at a fixed wavelength versus ligand concentration using a nonlinear regression method (see Table 1). MSG was used as a negative control.
# mouse T1R2 ATD [5] = biological target: T3, mouse T1R2 ATD; test: Intrinsic fluorescence spectroscopy, mouse T1R2 ATD; type: binding; settings: excitation 280 nm
# Protocol: as §1
SMILES,Kd (human T1R2 ATD [1]) [µM],"EC50 (human T1R2 ATD [3]; h-T1R2 ATD, signal at 336 nm, read-out: ligand concentration at half of the maximal value of fluorescence change) [µM]","EC50 (mouse T1R2 ATD [5]; signal at 336 nm, read-out: half-maximal value of fluorescence intensity decrease) [µM]",STD signal / binding (human T1R2 ATD [2]),change in CD profile / ellipticity upon ligand addition (human T1R2 ATD [1]),change in intrinsic fluorescence intensity (human T1R2 ATD [3]),change in ellipticity upon ligand addition (mouse T1R2 ATD [4]),change in intrinsic fluorescence intensity (mouse T1R2 ATD [5])
"N[C@@H](CCC(=O)O)C(=O)[O-].[Na+] [MSG, monosodium glutamate]",,,,no STD signal,no change,no change in intrinsic fluorescence intensity,no change in ellipticity,did not change the intrinsic fluorescence intensity
OC[C@H]1O[C@H](O[C@]2(CCl)O[C@H](CCl)[C@@H](O)[C@@H]2O)[C@H](O)[C@@H](O)[C@H]1Cl [Sucralose],40,5,,,,decreasing fluorescence intensity,,
OC[C@H]1O[C@@](CO)(O[C@H]2O[C@H](CO)[C@@H](O)[C@H](O)[C@H]2O)[C@@H](O)[C@@H]1O [Sucrose],40,,8,,small decrease in ellipticity,did not change the fluorescence intensity,small decrease in ellipticity,decrease in the fluorescence intensity

# Continued, in another order:
Kd (human T1R2 ATD [1]) [µM],"EC50 (human T1R2 ATD [3]; h-T1R2 ATD, signal at 336 nm, read-out: ligand concentration at half of the maximal value of fluorescence change) [µM]","EC50 (mouse T1R2 ATD [5]; signal at 336 nm, read-out: half-maximal value of fluorescence intensity decrease) [µM]",SMILES,STD signal / binding (human T1R2 ATD [2]),change in CD profile / ellipticity upon ligand addition (human T1R2 ATD [1]),change in intrinsic fluorescence intensity (human T1R2 ATD [3]),change in ellipticity upon ligand addition (mouse T1R2 ATD [4]),change in intrinsic fluorescence intensity (mouse T1R2 ATD [5])
100,,,CC1=CC(=O)NS(=O)(=O)O1 [Acetasulfame],,,,,
> 300,,,COC(=O)[C@H](Cc1ccccc1)NC(=O)[C@@H](N)CC(=O)O [Aspartame] (HELM PEPTIDE1{D.F.[CO[*:1]]}$$$$V2.0),,,,,
500,,,N[C@H](Cc1c[nH]c2ccccc12)C(=O)O [D-Tryptophan],,,,,
